The text below walks through data of patent US20070043064A1, “7-Substituted 3-nitro-pyrazo[1,5-a] pyrimidines” (FERRER INTERNACIONAL S.A., priority 2003, published 2007).

Molecules are shown by their SMILES. Like-named read-outs stand apart in the source and are kept apart here.

The target in series [1] is T1, α1-GABAA receptor (Rattus norvegicus, UniProt P62813).
T1 construct: the cerebellum (tissue that mostly contains α1-GABAA receptor); from tissue; host or cells: rat cerebellum membranes
The series can be described thus: Ligand-binding assay, radiolabeled flumazenil competition, cerebellum membranes. The procedure: (§1) Ligand-Binding Assays. Determination of the Affinity of Test Compounds for α1- and α2-GABAA Receptors.
(§2) Male Sprague-Dawley rats weighing 200-250 g at the time of experiment were used. After decapitation of the animal, the cerebellum (tissue that mostly contains α1-GABAA receptor) and spinal cord (tissue that mostly contains α2-GABAA receptor) were removed. The membranes were prepared according to the method by J. Lameh et al. (Prog. Neuro-Psychopharmacol. Biol. Psychiatry, 24, 979-991, 2000). Once the tissues weighed, they were suspended in 50 mM Tris HCl buffer, pH 7.7, (1:40 v/v), homogenized and then centrifuged at 20000 g for 10 min at 7° C. The resulting pellet was resuspended under the same conditions and centrifuged again. The final pellet obtained was resuspended on a minimum volume and kept at −80° C. overnight. On the next day, the process was repeated until the final pellet was resuspended at a ratio of 1:10 (v/v).
(§3) The affinity of the compounds was determined by competitive tests using radiolabeled flumazenil as ligand. The methods described by S. Arbilla et al. (Eur. J. Pharmacol., 130, 257-263, 1986); and Y. Wu et al. (Eur. J. Pharmacol., 278, 125-132, 1995) were used. The membranes containing the study receptors, flumazenil (radiolabeling at a final concentration of 1 nM) and ascending concentrations of test compounds (in a total volume of 500 μl in […] [ph 7.4] Tris HCl buffer) were incubated. Simultaneously, the membranes were only incubated with the radiolabeled flumazenil (total binding, 100%) and in the presence of an elevated concentration of unradiolabeled flumazenil (non-specific binding, % estimate of radiolabeled ligand). The reactions started on adding the radiolabeled ligand followed by incubation for 60 minutes at 0° C. At the end of the incubation period, the tubes were filtered using a Brandel Mod. M-48R harvester and then washed three times with cold test buffer. The harvester was fitted with a GF/B filter that retained the membranes containing the receptors and the radiolabeled ligand which had been bound to the receptors. Then the filters were removed and left till dry. Once dried, the filters were cut, placed in vials with scintillation liquid and left under stirring overnight. The next day the filters were counted using a Packard Mod. Tricarb scintillation counter.
(§4) T: total binding, maximum amount bound to the radiolabeled ligand. N: Non-specific binding, amount of radiolabeled ligand bound in a non-specific way irrespective of the receptor used.
(§5) Every concentrations of compound were tested in duplicate and their mean values were used to determine the experimental values of % specific binding versus the concentration of compound. […] Inhibition constants (Ki) were calculated from the IC50 values according to Cheng-Prusoff's formula (Y. Cheng y W. H. Prusoff, Biochem. Pharmacol., 22(23), 3099-3108, 1973).

The subject of series [2] is male CD1 mice. Nature of the series: Predictive sedation-hypnosis test in mice (motor activity, crossings). The series is classed as in vivo. Particulars: single equimolecular intraperitoneal dose, crossings over 30 min after dosing (first 5 min discarded) versus control animals. The procedure: In Vivo Determination of Predictive Sedative-Hypnotic Action.
The in vivo effects of these compounds were assessed by a predictive sedation-hypnosis test in mice (D. J. Sanger et al., Eur. J. Pharmacol., 313, 35-42, 1996; and G. Griebel et al., Psychopharmacology, 146, 205-213, 1999).
Groups of 5-8 male CD1 mice, weighing 22-26 g at the time of test, were used. The test compounds were administered in single equimolecular intraperitoneal doses, suspended in 0.25% agar with one drop of Tween in a volume of 10 ml/kg. Control animals received the vehicle alone. Using an Actisystem DAS16 (Panlab, S. L., Spain) the crossings (number of counts) were recorded for each mouse at 5-min intervals during a period of 30 minutes after dosing. The inhibition percentage of crossings of treated animals versus control animals (the first 5 min were discarded) was calculated.

Series [3] has as its target α2-GABAA receptor (Rattus norvegicus, UniProt P18508+P23576). The series can be described thus: Ligand-binding assay, radiolabeled flumazenil competition, spinal cord membranes. To be noted: for inhibition at 10 µM: compound at 10^−5M; for inhibition at 0.1 µM: compound at 10^−7M. The procedure:
as §1, §2, §3, §4, §5

Setting [4] is: read-out: Affinity for α1-GABAA receptor, Ki.

`O=[N+]([O-])c1cnn2c(-c3ccco3)ccnc12`: the melting point lay within 235 to 237 °C. `O=[N+]([O-])c1cnn2c(-c3cccs3)ccnc12` came in with a melting point of 235 to 237 °C.

The compound `O=[N+]([O-])c1cnn2c(-c3cccnc3)ccnc12` showed a melting point of 302 to 303 °C. `O=[N+]([O-])c1cnn2c(-c3ccncc3)ccnc12` came in with a melting point of 241 to 244 °C.

In turn, `CCN(c1cccc(-c2ccnc3c([N+](=O)[O-])cnn23)c1)S(=O)(=O)c1ccc(OC)cc1` came in with a melting point of 209 to 211 °C. For `CCCCN(c1cccc(-c2ccnc3c([N+](=O)[O-])cnn23)c1)S(=O)(=O)c1ccc(OC)cc1`, the melting point is 189 to 190 °C. Turning to `CCCN(c1cccc(-c2ccnc3c([N+](=O)[O-])cnn23)c1)S(=O)(=O)c1ccc(OC)cc1`, the melting point was in the range of 184 to 185 °C.

Compound `COc1ccc(S(=O)(=O)N(C)c2cccc(-c3ccnc4c([N+](=O)[O-])cnn34)c2)cc1` came in with a melting point of 205 to 206 °C. `CCCCN(c1cccc(-c2ccnc3c([N+](=O)[O-])cnn23)c1)S(=O)(=O)c1ccccc1` displayed a melting point of 159 to 160 °C. The compound `CCCN(c1cccc(-c2ccnc3c([N+](=O)[O-])cnn23)c1)S(=O)(=O)c1ccccc1` came in with a melting point of 154 to 156 °C. Turning to `CCCCN(c1cccc(-c2ccnc3c([N+](=O)[O-])cnn23)c1)S(C)(=O)=O`, the melting point is 153 to 155 °C. `O=C1CCCN1c1cccc(-c2ccnc3c([N+](=O)[O-])cnn23)c1`: the melting point was in the range of 226 to 228 °C. The compound `O=[N+]([O-])c1cnn2c(-c3ccccc3C(F)(F)F)ccnc12` displayed a melting point of 195 to 197 °C. Regarding `O=[N+]([O-])c1cnn2c(-c3ccc(C(F)(F)F)cc3)ccnc12`, the melting point fell in the range of 191 to 193 °C. As for `CCN(C(C)=O)c1cccc(-c2ccnc3c([N+](=O)[O-])cnn23)c1` [Example 1, N-ethyl-N-[3-(3-nitro-pyrazolo[1,5-a]pyrimidin-7-yl)-phenyl]-acetamide], the melting point was in the range of 176 to 178 °C. This compound also registered a Ki in series [1] of 88.6 nM. Besides, in series [2], the “% Inhibition Motor Activity” value is reported as 77.25%. Compound `CC(=O)N(C)c1cccc(-c2ccnc3c([N+](=O)[O-])cnn23)c1` [Example 2, N-methyl-N-[3-(3-nitro-pyrazolo[1,5-a]pyrimidin-7-yl)-phenyl]-acetamide] gave an inhibition constant (Ki) in series [1] of 96.8 nM. Also, the “% Inhibition Motor Activity” value in series [2] is 77.25%. For the compound `CCCN(C(C)=O)c1cccc(-c2ccnc3c([N+](=O)[O-])cnn23)c1` [Example 3, N-[3-(3-nitro-pyrazolo[1,5-a]pyrimidin-7-yl)-phenyl]-N-(n-propyl)-acetamide], the Ki in series [1] (setting [4]) turned out to be 110 nM. Besides, in series [2], the “% Inhibition Motor Activity” value is 61.68%.

Consider `C#CCN(C(C)=O)c1cccc(-c2ccnc3c([N+](=O)[O-])cnn23)c1` [Example 5, N-[3-(3-nitro-pyrazolo[1,5-a]pyrimidin-7-yl)-phenyl]-N-(2-propynyl)-acetamide], for which the Ki in series [1] came out at 38.6 nM. Further, the “% Inhibition Motor Activity” value in series [2] is recorded as 79.06%. `O=[N+]([O-])c1cnn2c(-c3cccc(C(F)(F)F)c3)ccnc12` [Example 8, 3-nitro-7-(3-trifluoromethyl-phenyl)-pyrazolo[1,5-a]pyrimidine]: the melting point lay in the range of 159 to 161 °C. Further, the Ki in series [1] (setting [4]) worked out at 623 nM. In series [2], the “% Inhibition Motor Activity” value is reported as 69.08%. Take `CCN(c1cccc(-c2ccnc3c([N+](=O)[O-])cnn23)c1)S(C)(=O)=O` [Example 15, N-ethyl-N-[3-(3-nitro-pyrazolo[1,5-a]pyrimidin-7-yl)-phenyl]-methanesulfonamide]: the affinity in series [1] corresponds to a Ki of 11.1 nM. For the compound `CN(c1cccc(-c2ccnc3c([N+](=O)[O-])cnn23)c1)S(C)(=O)=O` [Example 18, N-methyl-N-[3-(3-nitro-pyrazolo[1,5-a]pyrimidin-7-yl)-phenyl]-methanesulfonamide], in series [1], the Ki worked out at 28.3 nM. In addition, in series [2], the “% Inhibition Motor Activity” value is given as 68.55%.

Compound `CCCN(c1cccc(-c2ccnc3c([N+](=O)[O-])cnn23)c1)S(C)(=O)=O` [Example 25, N-[3-(3-nitro-pyrazolo[1,5-a]pyrimidin-7-yl)-phenyl]-N-(n-propyl)-methanesulfonamide] gave a melting point of 165 to 167 °C. Besides, the inhibitory constant (Ki) in series [1] came out at 102 nM. For the same compound, in series [2], the “% Inhibition Motor Activity” value was 61.06%. The compound `C#CCN(c1cccc(-c2ccnc3c([N+](=O)[O-])cnn23)c1)S(C)(=O)=O` [Example 28, N-[3-(3-nitro-pyrazolo[1,5-a]pyrimidin-7-yl)-phenyl]-N-(prop-2-inyl)-methanesulfonamide] yielded a Ki in series [1] of 11.7 nM. For the same compound, the “% Inhibition Motor Activity” value in series [2] is recorded as 94.19%. In series [3], this compound registered an inhibition at 10 µM of 96.4% and an inhibition at 0.1 µM of 29%.

In series [1], `C#CCN(c1cccc(-c2ccnc3c([N+](=O)[O-])cnn23)c1)S(=O)(=O)C(C)C` [Example 31, N-[3-(3-nitro-pyrazolo[1,5-a]pyrimidin-7-yl)-phenyl]-N-(n-prop-2-inyl)-propane-2-sulfonamide] registered a Ki of 48.5 nM. Further, the “% Inhibition Motor Activity” value in series [2] is given as 94.31%. Further, in series [3], the inhibition at 10 µM stood at 81.3% and the inhibition at 0.1 µM was 4.2%. On to `CCS(=O)(=O)N(C)c1cccc(-c2ccnc3c([N+](=O)[O-])cnn23)c1` [Example 32, N-[3-(3-nitro-pyrazolo[1,5-a]pyrimidin-7-yl)-phenyl]-N-methyl-ethanesulfonamide], for which, in series [1], the Ki turned out to be 31 nM. For the same compound, in series [2], the “% Inhibition Motor Activity” value was 91.57%. For the same compound, in series [3], 10 µM produced 89% inhibition and the inhibition at 0.1 µM worked out at 21%.

As for `O=[N+]([O-])c1cnn2c(-c3cccc(N4CCCS4(=O)=O)c3)ccnc12` [Example 34, 7-(3-(2-isothiazolidinyl-1,1-dioxide)-phenyl)-3-nitro-pyrazolo[1,5-a]pyrimidine], the inhibitory constant (Ki) in series [1] (setting [4]) was determined as 165 nM. For the same compound, the “% Inhibition Motor Activity” value in series [2] is on record as 64.23%. In series [3], the inhibition at 10 µM was found to be 86.9% and at 0.1 µM the inhibition was 4.3%.

`CC(C)S(=O)(=O)N(C)c1cccc(-c2ccnc3c([N+](=O)[O-])cnn23)c1` [Example 35, N-[3-(3-nitro-pyrazolo[1,5-a]pyrimidin-7-yl)-phenyl]-N-methyl-propane-2-sulfonamide]: the Ki in series [1] was found to be 41.2 nM. For the same compound, the “% Inhibition Motor Activity” value in series [2] was 91.21%. Further, in series [3], the inhibition at 10 µM was found to be 91.5% and the inhibition at 0.1 µM turned out to be 18.9%. Consider `CCN(C(C)=O)c1cccc(-c2ccnc3c(C#N)cnn23)c1` [Zaleplon, zaleplon, reference compound], for which, in series [2], the “% Inhibition Motor Activity” value is reported as 47.17%. Moreover, testing at 10 µM in series [3] gave an inhibition of 78.4%.
